# Experimental data from patent publication US5968791A, “Plant lysophosphatidic acid acyltransferases” (Calgene, Inc., priority 1995, dated 1999).
# Columns and labels:
# bay LPAAT = test: LPAAT activity assay, California bay P2 membrane preparation; assay type: biochemical, Umbellularia californica; conditions: for detergent concentration in the assay that inhibits long-chain LPAAT activity completely: 18:1-CoA and 18:1-LPA, concentrations w/v; for detergent concentration tolerated without complete loss of activity: 1-hour exposure, diluted prior to assay
# Description: To assay for LPAAT activity, the sample is incubated with lysophosphatidic acid (LPA) and acyl-coenzyme A (acyl-CoA) substrates in buffered solution. The acyl substituents of the two substrates are chosen to correspond with the specificity of the enzyme being measured. […] The acyl group of one substrate is radioactively labeled in order to detect the product formed. In the examples which follow the acyl substituent of the acyl-CoA substrate is radiolabeled with ^14 C in the carboxyl group. LPAAT activity results in transfer of this acyl group from the acyl-CoA "donor" substrate to the LPA "acceptor" substrate, converting the latter into the product, phosphatidic acid (PA). LPAAT activity is measured as the amount of radioactive product formed in a given assay time. The PA product is radioactive as a result of the transferred radiolabeled acyl group at the central carbon atom of the molecule, and the quantity of PA formed may be determined by measuring radioactivity of the PA fraction. For this measurement, the PA is first separated from the acyl-CoA substrate by solvent partitioning, or by thin-layer chromatography (TLC).
# Rapeseed LPAAT = test: LPAAT activity assay, rapeseed P2 membrane preparation; assay type: biochemical, Brassica napus; conditions: acyl-CoA donor varied, acceptor 12:0-LPA
# Description: (§1) To assay for LPAAT activity, the sample is incubated with lysophosphatidic acid (LPA) and acyl-coenzyme A (acyl-CoA) substrates in buffered solution. The acyl substituents of the two substrates are chosen to correspond with the specificity of the enzyme being measured. For example, to measure activity of an LPAAT having preference for medium-chain substrates, lauroyl-LPA (lauroyl-lysophosphatidic acid) and lauroyl-CoA may be used, to measure activity of an LPAAT preferring longer-chain acyl groups, oleoyl-LPA and oleoyl-CoA may be used, to measure activity of an LPAAT preferring very-long chain substrate, erucyl-LPA and erucyl-CoA may be used, and so on, depending upon the type of LPAAT to be tested. The acyl group of one substrate is radioactively labeled in order to detect the product formed. In the examples which follow the acyl substituent of the acyl-CoA substrate is radiolabeled with ^14 C in the carboxyl group. LPAAT activity results in transfer of this acyl group from the acyl-CoA "donor" substrate to the LPA "acceptor" substrate, converting the latter into the product, phosphatidic acid (PA). LPAAT activity is measured as the amount of radioactive product formed in a given assay time. The PA product is radioactive as a result of the transferred radiolabeled acyl group at the central carbon atom of the molecule, and the quantity of PA formed may be determined by measuring radioactivity of the PA fraction. For this measurement, the PA is first separated from the acyl-CoA substrate by solvent partitioning, or by thin-layer chromatography (TLC).
# (§2) 20 μl of the sample to be assayed for LPAAT activity is mixed with 217.5 μl of an assay ingredient mixture in a 4-ml, screw-cap vial. […] The incubation takes place in a water bath at 30° C., for 20-30 minutes.
# (§3) To stop the assay, 0.25 ml of 1M KCl in 0.2M H3 PO4 is added to the vial. At this point, 40 μl BSA (bovine serum albumin, fraction V) at 1 mg/ml are added, followed by 0.75 ml of a solution of 67 μg/ml unlabeled PA (acting as a "carrier" to facilitate partitioning) in chloroform/methanol (2:1, v/v). The chain lengths of the PA acyl groups are chosen to correspond to those used in the assay substrates. Upon thorough mixing of these components the radiolabeled PA product of the LPAAT reaction partitions into the organic phase and away from the unreacted acyl-CoA and LPA. The vial is centrifuged briefly at low speed to facilitate the separation of organic (lower) and aqueous (upper) phases. The aqueous phase is then removed and discarded. The total radioactivity extracted into the organic phase is determined by liquid scintillation counting; a 100 μl sample of the organic phase is transferred to a 20 ml scintillation vial and allowed to dry, and scintillation fluid (3-5 ml) is added to the vial. The radioactivity of the sample, after subtraction of the "minus-enzyme" or "minus-LPA" radioactivities, is taken as an approximate indication of the amount of PA formed in the LPAAT-catalyzed reaction and therefore of LPAAT activity.
# A more accurate estimation of the LPAAT activity may be obtained by separating the PA product from these contaminants by TLC. The remaining organic phase is applied to a silica TLC plate. […] After the plate has dried, the distribution of radioactivity is visualized and quantitated using an AMBIS radioanalytic imaging system (AMBIS Systems Inc., San Diego, Calif.). From prior application of standard lipid components the Rf of the PA is known. The radioactivity associated with the PA spot is expressed as a percentage of the total radioactivity of the assay sample loaded on the plate. This ratio provides an indication of the proportion of the scintillation counts which represent the PA product, and may be used to correct the counts to obtain the total PA radioactivity formed in the assay.
# A P2 membrane homogenate from immature embryos of developing rapeseed (Brassica napus) seeds is prepared essentially as described above, except as noted below.
# [1] = molecular target: T1, coconut medium-chain LPAAT (Cocos nucifera, UniProt Q42670); test: Assay of solubilized coconut LPAAT (S3 preparation) with phospholipid activation; assay type: biochemical; conditions: for effect on LPAAT activity of the coconut S3 preparation: added at 1 mM; for reduction of LPAAT activity of the coconut S3 preparation: added at 10 mM
# T1 construct: The frozen coconut P2 preparation is thawed and diluted in a volume of P2 Buffer; from tissue; host or cells: immature coconut endosperm, solubilized S3 supernatant of P2 membranes
# T1 sequence (Q42670 1-308): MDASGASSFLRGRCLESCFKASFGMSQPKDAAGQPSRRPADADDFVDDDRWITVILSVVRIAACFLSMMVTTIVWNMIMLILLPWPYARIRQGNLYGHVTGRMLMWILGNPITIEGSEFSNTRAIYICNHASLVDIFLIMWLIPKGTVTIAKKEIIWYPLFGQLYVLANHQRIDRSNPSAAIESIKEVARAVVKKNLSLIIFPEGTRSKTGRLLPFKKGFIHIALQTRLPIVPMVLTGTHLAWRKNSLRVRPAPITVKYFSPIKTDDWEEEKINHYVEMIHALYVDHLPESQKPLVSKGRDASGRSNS
# Description: After solubilization of LPAAT protein from plant membranes as described below, modification of the above assay conditions is required in order to detect maximum LPAAT activity. This is especially important after the solubilized LPAAT has been chromatographed on at least one column. The important modification to the assay is the addition, at the start of the assay procedure, of 1 μl of a concentrated phospholipid (PL) solution to 20 μl of the LPAAT-containing sample in a glass vial. The high concentrations of CHAPS (at least 1% w/v) and NaCl (typically 0.5M or greater) in the solubilized LPAAT preparation aid in dispersal of the phospholipids. The phospholipid solution is obtained by sonicating crude soybean phospholipids (L-phosphatidylcholine from soybean, "Type IVs" obtained from Sigma Chemical Company, St. Louis) at 50 mg/ml in 0.5% (w/v) CHAPS (3-[(3-cholamidopropyl) -dimethylammonio]-1-propane-sulfonate) until a uniform suspension is obtained.
# The remaining assay ingredients (as described above), with the exception of the acyl-CoA substrate, are then added as 219 μl of a mixture. […] Radiolabeled acyl-CoA (10 μl, or an appropriately adjusted volume as indicated above) is added to start the LPAAT-catalyzed reaction and the rest of the assay procedure is completed as described above.
# All steps are carried out at 0-4° C. The frozen coconut P2 preparation is thawed and diluted in a volume of P2 Buffer to achieve a protein concentration of 0.94 mg/ml P2 protein. Protein concentration is determined by Coomassie dye staining relative to a bovine serum albumin standard. The P2 membrane suspension is then diluted with an equal volume of Solubilization Buffer (50 mM HEPES-NaOH, pH 7.5, […], 20% (w/v) glycerol, 4.5% (w/v) CHAPS, 100 μM Pefabloc, 1 μM leupeptin, 1 μM Pepstatin A, and 5 mM β-ME), resulting in final concentrations of 1M NaCl, 2.25% (w/v) detergent, and 0.47 mg/ml protein. These component concentrations, and the resulting detergent/protein ratio of 48/1 (w/w), are important for optimal solubilization. The preparation is then incubated on ice for 30 minutes with occasional, gentle stirring, followed by centrifugation at 252,000×g for 2 hours. The resulting supernatant fraction (S3) is filtered through buffer-wetted Miracloth, and may then be stored frozen (-70) with only slight loss of activity. Optimally, it is applied to chromatography columns without an intervening freeze-thaw cycle.
# Assay of the coconut medium-chain LPAAT activity after solubilization (S3 preparation) and reactivation with PLs, using different acyl-CoA substrates, provides the following results (Table 3). In all these assays the acceptor substrate is 12:0-LPA.
# coconut LPAAT = molecular target: T2, coconut LPAAT (Cocos nucifera, UniProt Q42670); test: LPAAT activity assay, coconut P2 membrane preparation; assay type: biochemical; parameters: white endosperm tissue lining the inside of the endocarp can be dissected and collected; from tissue; host or cells: immature coconut endosperm, P2 membrane fraction; conditions: for effect on medium-chain LPAAT activity: coconut P2
# T2 sequence (Q42670 1-308): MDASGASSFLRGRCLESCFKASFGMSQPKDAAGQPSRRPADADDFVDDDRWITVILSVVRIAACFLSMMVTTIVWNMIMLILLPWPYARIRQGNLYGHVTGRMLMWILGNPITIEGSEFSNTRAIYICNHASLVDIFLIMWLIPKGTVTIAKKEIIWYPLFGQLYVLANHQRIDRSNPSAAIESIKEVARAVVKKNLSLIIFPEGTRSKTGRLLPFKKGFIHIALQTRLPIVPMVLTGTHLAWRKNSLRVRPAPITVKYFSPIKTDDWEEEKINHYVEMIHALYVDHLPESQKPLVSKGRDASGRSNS
# Description: as §1, §2, §3
# A more accurate estimation of the LPAAT activity may be obtained by separating the PA product from these contaminants by TLC. The remaining organic phase is applied to a silica TLC plate. Ascending chromatography is carried out for 50 minutes, using the solvent mixture chloroform/pyridine/88% formic acid (50:30:7, v/v). After the plate has dried, the distribution of radioactivity is visualized and quantitated using an AMBIS radioanalytic imaging system (AMBIS Systems Inc., San Diego, Calif.). From prior application of standard lipid components the Rf of the PA is known. The radioactivity associated with the PA spot is expressed as a percentage of the total radioactivity of the assay sample loaded on the plate. This ratio provides an indication of the proportion of the scintillation counts which represent the PA product, and may be used to correct the counts to obtain the total PA radioactivity formed in the assay. […]
# [2] = P2 membrane preparation, acyl-CoA donor varied, acceptor 12:0-LPA
molecule,measurement,setting,value
CCCCCC(=O)SCCNC(=O)CCNC(=O)[C@H](O)C(C)(C)COP(=O)(O)OP(=O)(O)OC[C@H]1O[C@@H](n2cnc3c(N)ncnc32)[C@H](O)[C@@H]1OP(=O)(O)O [6:0],LPAAT Activity from Bay,bay LPAAT; [2],1 pmol PA formed/30 min assay
same,LPAAT Activity from Rapeseed,Rapeseed LPAAT,0 pmol PA formed/30 min assay
same,"LPAAT Activity, solubilized coconut LPAAT","[1]; radioactivity of PA product resolved on TLC, after 30 min assay, S3 reactivated with PLs, acceptor 12:0-LPA",1 cpm
same,LPAAT Activity from Coconut,coconut LPAAT; [2],3 pmol PA formed/30 min assay
"C[C@H](CCC(=O)NCCC[N+](C)(C)CCCS(=O)(=O)[O-])[C@H]1CC[C@H]2[C@@H]3[C@H](O)C[C@@H]4C[C@H](O)CC[C@]4(C)[C@H]3C[C@H](O)[C@]12C [CHAPS, 3-[(3-cholamidopropyl) -dimethylammonio]-1-propane-sulfonate]",concentration above which inhibitory in the medium-chain LPAAT assay,coconut LPAAT; coconut medium-chain LPAAT assay,above 0.1 % (w/v)
same,inhibition at 5000 µg/mL,coconut LPAAT; read-out: LPAAT activity loss,50%
[Ca+2] [Ca^2+],effect on LPAAT activity of the coconut S3 preparation,[1],without significant effect
same,reduction of LPAAT activity of the coconut S3 preparation,[1],≥ 50%
CC(C)(COP(=O)(O)OP(=O)(O)OC[C@H]1O[C@@H](n2cnc3c(N)ncnc32)[C@H](O)[C@@H]1OP(=O)(O)O)[C@@H](O)C(=O)NCCC(=O)NCCS [CoA],effect on medium-chain LPAAT activity,coconut LPAAT; 0.1 mM in the assay system,unaffected
[Mg+2] [Mg^2+],effect on LPAAT activity of the coconut S3 preparation,[1],without significant effect
same,reduction of LPAAT activity of the coconut S3 preparation,[1],≥ 50%
[Mn+2] [Mn^2+],effect on LPAAT activity of the coconut S3 preparation,[1],without significant effect
same,reduction of LPAAT activity of the coconut S3 preparation,[1],≥ 50%
"CCCCCCCCCCCCOS(=O)(=O)[O-].[Na+] [SDS, sodium dodecyl sulfate]",detergent concentration in the assay that inhibits long-chain LPAAT activity completely,bay LPAAT; bay P2 preparation,0.002%
CCCCCCCCCCCCCC[N+](C)(C)CCCS(=O)(=O)[O-] [Zwittergent 3-14],detergent concentration in the assay that inhibits long-chain LPAAT activity completely,bay LPAAT; bay P2 preparation,0.005%
Nc1ncnc2c1ncn2[C@@H]1O[C@H](COP(=O)(O)OP(=O)(O)OP(=O)(O)O)[C@@H](O)[C@H]1O [adenosine-5'-triphosphate],effect on medium-chain LPAAT activity,coconut LPAAT; 2 mM in the assay system,unaffected
CCCCCCCCO[C@@H]1O[C@H](CO)[C@@H](O)[C@H](O)[C@H]1O [octyl glucoside],detergent concentration tolerated without complete loss of activity,bay LPAAT; bay P2 preparation,0.5%
same,detergent concentration in the assay that inhibits long-chain LPAAT activity completely,bay LPAAT; bay P2 preparation,0.1%
C[C@H](CCC(=O)O)[C@H]1CC[C@H]2[C@@H]3CC[C@@H]4C[C@H](O)CC[C@]4(C)[C@H]3C[C@H](O)[C@]12C [sodium deoxycholate],detergent concentration in the assay that inhibits long-chain LPAAT activity completely,bay LPAAT; bay P2 preparation,0.1%
Triton X100,detergent concentration tolerated without complete loss of activity,bay LPAAT; bay P2 preparation,0.1%
same,detergent concentration in the assay that inhibits long-chain LPAAT activity completely,bay LPAAT; bay P2 preparation,0.03%
Tween 20,detergent concentration tolerated without complete loss of activity,bay LPAAT; bay P2 preparation,2.5%
same,detergent concentration in the assay that inhibits long-chain LPAAT activity completely,bay LPAAT; bay P2 preparation,1%
lysophosphatidylcholine,effect on medium-chain LPAAT activity,coconut LPAAT; 60 μM in the assay system,unaffected
"18:1-ACP: 18:1 acyl-ACP tested as LPAAT donor substrate (conjugate, UniProt P0A6A8 2-78, looked up, 18:1 acyl thioester, 18:1 acyl-ACP tested as LPAAT donor substrate) Acyl carrier protein: STIEERVKKIIGEQLGVKQEEVTNNASFVEDLGADSLDTVELVMALEEEFDTEIPDEEAEKITTVQAAIDYINGHQA",utilization as LPAAT donor substrate instead of 18:1-CoA,bay LPAAT; bay P2 preparation,will not significantly utilize
